Results reported in BindingDB's records for doi:10.1021/acs.jmedchem.6b01196 (National Institute of Biological Sciences, 2017).

How the values were obtained:
[1] = Inhibition of RIP1 in human HT-29 cells assessed as reduction in TNFalpha/z-VAD-FMK-induced necrosis after 24 hrs by Cell Titer-Glo luminescent cell viability assay
[2] = Inhibition of RIP1 in mouse L929 cells assessed as reduction in TNFalpha/z-VAD-FMK-induced necrosis after 6 hrs by Cell Titer-Glo luminescent cell viability assay
[3] = Inhibition of RIP1 in human HT-29 cells assessed as reduction in TNFalpha/z-VAD-FMK-induced necrosis after 24 hrs by Cell Titer-Glo luminescent cell viability assay; remark: listed apart in the source

Structure (SMILES) | EC50 [1] | further results
CCC(C)(C)C(=O)N(O)Cc1cc(F)c(F)c(F)c1 | 49 nM | 
CCC(C)(C)C(=O)N(O)Cc1ccc(F)c(F)c1F | 262 nM | 
CCC(C)(C)C(=O)N(O)Cc1ccc(F)cc1F | 198 nM | 
CCC(C)(C)C(=O)N(O)Cc1ccc(F)cc1 | 64 nM | 
CCC(C)(C)C(=O)N(O)Cc1ccccc1 | 28 nM | EC50 [2]: 27 nM
CCC(C)(C)C(=O)NC1(c2ccccc2)CC1 | > 5000 nM | 
CCC(C)(C)C(=O)N(C)C(CO)c1ccccc1 (stereo not given) | > 10000 nM | 
CCC(C)(C)C(=O)NC(CO)c1ccccc1 (stereo not given) | 1080 nM | 
CCC(C)(C)C(=O)N(C)C(C)c1ccccc1 (stereo not given) | > 10000 nM | 
CCC(C)(C)C(=O)NC(C)c1ccccc1 (stereo not given) | > 10000 nM | 
CC1CCCCN1C(=O)N(C)Cc1cc(F)cc(F)c1F (stereo not given) | > 3000 nM | 
CC(C)N(C(=O)N(C)Cc1cc(F)cc(F)c1F)C(C)C | > 3000 nM | 
CC(C)N(C)C(=O)N(C)Cc1cc(F)cc(F)c1F | > 3000 nM | 
CN(Cc1cc(F)cc(F)c1F)C(=O)C1(C)CCCCC1 | 490 nM | 
CN(Cc1cc(F)cc(F)c1F)C(=O)C1(C(F)(F)F)CCCC1 | 1230 nM | 
CN(Cc1cc(F)cc(F)c1F)C(=O)C1(C(F)(F)F)CCC1 | 656 nM | 
CN(Cc1cc(F)cc(F)c1F)C(=O)C1CCC1 | 8240 nM | 
CN(Cc1cc(F)cc(F)c1F)C(=O)C1(C)CC1 | > 10000 nM | 
CN(Cc1cc(F)cc(F)c1F)C(=O)C(C)(C)CO | > 3000 nM | 
COC(C)(C)C(=O)N(C)Cc1cc(F)cc(F)c1F | > 10000 nM | 
CN(Cc1cc(F)cc(F)c1F)C(=O)C(C)(C)C | 98 nM | 
CCC(C)(C)C(=O)N(C)Cc1ccn(C)n1 | > 10000 nM | 
CCC(C)(C)C(=O)N(C)Cc1cnc(C)s1 | > 10000 nM | 
CCC(C)(C)C(=O)N(C)Cc1ccco1 | 628 nM | 
CCC(C)(C)C(=O)N(C)Cc1ccc(C)s1 | 378 nM | 
CCC(C)(C)C(=O)N(C)Cc1sccc1C | 2530 nM | 
CCC(C)(C)C(=O)N(C)Cc1cccs1 | 221 nM | 

Structure (SMILES) | EC50 [1] | further results
CCC(C)(C)C(=O)N(C)Cc1cccnc1 | 1740 nM | 
CCC(C)(C)C(=O)N(C)Cc1ccncc1 | > 10000 nM | 
CCC(C)(C)C(=O)N(C)Cc1c(F)cc(F)cc1F | 1250 nM | 
CCC(C)(C)C(=O)N(C)Cc1cc(F)ccc1F | 36 nM | 
CCC(C)(C)C(=O)N(C)Cc1ccc(F)cc1F | 627 nM | 
CCC(C)(C)C(=O)N(C)Cc1ccc(F)cc1 | 815 nM | 
CCC(C)(C)C(=O)N(C)Cc1cccc(O)c1 | > 3000 nM | 
CCC(C)(C)C(=O)N(C)Cc1cccc(Br)c1 | 1230 nM | 
CCC(C)(C)C(=O)N(C)Cc1cccc(F)c1 | 72 nM | 
CCC(C)(C)C(=O)N(C)Cc1ccccc1Cl | > 10000 nM | 
CCN(Cc1ccccc1F)C(=O)C(C)(C)CC | > 10000 nM | 
CCC(C)(C)C(=O)N(C)Cc1ccccc1 | 457 nM | 
CCC(C)(C)C(=O)NCc1cccc(Br)c1 | > 10000 nM | 
CCC(C)(C)C(=O)NCc1ccccc1F | 898 nM | 
CCC(C)(C)C(=O)NCc1ccccc1 | 4100 nM | 
CCC(C)(C)C(=O)N(O)Cc1cc(F)cc(F)c1F | 74 nM | 
CCC(C)(C)C(=O)N(O)Cc1ccc(F)c(F)c1 | 56 nM | 
CCC(C)(C)C(=O)N(C)C(C)(C)c1ccccc1 | > 10000 nM | 
CCC(C)(C)C(=O)NC(C)(C)c1ccccc1 | > 10000 nM | 
CC1CCCC(C)N1C(=O)N(C)Cc1cc(F)cc(F)c1F (stereo not given) | 1530 nM | 
CCC(C)(C)C(=O)N(C)Cc1cc(C)c(C)s1 | 1310 nM | 
CCC(C)(C)C(=O)N(C)Cc1ccccc1F |  | EC50 [3]: 125 nM
CCC(C)(C)C(=O)N(C)Cc1cc(F)cc(F)c1F |  | EC50 [3]: 12 nM
CCC(C)(C)C(=O)N(C)Cc1cccc(Cl)c1 |  | EC50 [3]: 628 nM
CCC(C)(C)C(=O)N(C)Cc1cccc(F)c1F |  | EC50 [3]: 58 nM
CCC(C)(C)C(=O)NCc1ccccc1Br |  | EC50 [3]: 8560 nM
CCC(C)(C)C(=O)N(C)Cc1ccncc1F |  | EC50 [3]: > 10000 nM
